Laboratory results published in patent publication US20140065075A1, “TARGETED CONTRAST AGENTS AND USES THEREOF” (RF THERAPEUTICS INC., priority 2011, published 2014).

System: necrotic tissue (infarcted myocardial tissue)
Test: MRI analysis of contrast agents in vivo: rats, left main coronary artery ligation and reperfusion, MR images compared with tissue histology
Parameters: species or system rat
Experimental: Contrast agents were prepared following the methods outlined in Examples 1-11 above. Rats (250-300 g—obtained from where?) were used for the following studies detailed below.
Rats were anesthetized by administration of isoflurane (5% induction, 1-2% maintenance) and positioned in an animal holder. The blood pressure and heart rate of the rats were monitored prior to ligation to provide a baseline condition. The rats were subjected to ligation of the left main coronary artery under aseptic conditions. During the ligation, the left thoracic cage of the rat, at the 4th intercostal space was opened to expose the heart muscle. The pericardial sac was cut open and the left main coronary artery was ligated at 2-4 mm from its origin using 6-0 prolene for a period of 2 h. The ligature was then removed to allow for the reperfusion of the infarcted myocardial tissue. Following the ligation procedure, bupivacaine and Cicatrin were applied to the incision. […]
The contrast agent was the intravenously injected 4 hours following the start of myocardial reperfusion. The blood pressure and heart rate were monitored during the ligation procedure and the administration of the contrast agent. The body temperature of the rats was monitored with a rectal probe and maintained at the physiological level by the circulating warm water. […]

With `O=C([O-])CN(CCN(CCN(CC(=O)[O-])CC(=O)Nc1ccc(NC(=O)CN(CCN(CCN(CC(=O)[O-])CC(=O)O)CC(=O)O)CC(=O)[O-])cc1)CC(=O)O)CC(=O)[O-].[Na+].[Na+].[Na+].[Na+].[Na+]` [RF 1002] the “contrast enhancement in MR images versus necrotic tissue visible by staining of the tissue sample (binding to necrotic tissue)” value (5 mg/kg and 40 mg/kg intravenous 4 hours after start of reperfusion, 7 Tesla MRI about 4 to 16 hours after administration) was “necrotic tissue visible by staining of the tissue sample corresponds to the same region exhibiting contrast enhancement in the MR images” and the “visibility of contrast enhancement on the MRI, dose comparison” value (40 mg/kg versus 5 mg/kg intravenous) was “more defined at the higher dosage of contrast agent”.
